Source: PMC11219871, “Epigenetic-based differentiation therapy for Acute Myeloid Leukemia” (Nature Communications, 2024)
Where “and” joins values, the source holds several entries; their conditions need not be identical. Equal entries are not always repeated.

How the values were obtained:
HDAC10 = target: T1, HDAC10 (Homo sapiens, UniProt Q969S8); assay: HDAC assay (Eurofins); assay type: biochemical
T1 construct: purchased Eurofins (contracted assay service)
T1 sequence (Q969S8 1-669): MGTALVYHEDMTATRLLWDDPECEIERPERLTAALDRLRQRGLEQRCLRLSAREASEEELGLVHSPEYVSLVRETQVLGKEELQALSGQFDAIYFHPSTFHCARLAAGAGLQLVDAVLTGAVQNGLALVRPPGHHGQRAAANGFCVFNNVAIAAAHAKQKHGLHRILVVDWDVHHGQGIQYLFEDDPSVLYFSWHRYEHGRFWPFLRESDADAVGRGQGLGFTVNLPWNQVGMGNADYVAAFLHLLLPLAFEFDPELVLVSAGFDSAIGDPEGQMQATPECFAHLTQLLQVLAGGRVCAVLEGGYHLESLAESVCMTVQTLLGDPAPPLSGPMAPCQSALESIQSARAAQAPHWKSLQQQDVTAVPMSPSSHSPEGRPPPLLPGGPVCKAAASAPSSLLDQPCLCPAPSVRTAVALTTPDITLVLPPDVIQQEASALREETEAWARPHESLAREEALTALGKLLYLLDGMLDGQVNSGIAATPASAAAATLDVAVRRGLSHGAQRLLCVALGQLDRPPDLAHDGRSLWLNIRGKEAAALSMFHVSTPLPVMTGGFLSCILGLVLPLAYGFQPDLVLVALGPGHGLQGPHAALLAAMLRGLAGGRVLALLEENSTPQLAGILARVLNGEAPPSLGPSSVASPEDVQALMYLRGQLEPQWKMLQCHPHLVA

HDAC8 = target: T2, HDAC8 (Homo sapiens, UniProt Q9BY41); assay: HDAC assay (Eurofins); assay type: biochemical
T2 construct: purchased Eurofins (contracted assay service)
T2 sequence (Q9BY41 1-377): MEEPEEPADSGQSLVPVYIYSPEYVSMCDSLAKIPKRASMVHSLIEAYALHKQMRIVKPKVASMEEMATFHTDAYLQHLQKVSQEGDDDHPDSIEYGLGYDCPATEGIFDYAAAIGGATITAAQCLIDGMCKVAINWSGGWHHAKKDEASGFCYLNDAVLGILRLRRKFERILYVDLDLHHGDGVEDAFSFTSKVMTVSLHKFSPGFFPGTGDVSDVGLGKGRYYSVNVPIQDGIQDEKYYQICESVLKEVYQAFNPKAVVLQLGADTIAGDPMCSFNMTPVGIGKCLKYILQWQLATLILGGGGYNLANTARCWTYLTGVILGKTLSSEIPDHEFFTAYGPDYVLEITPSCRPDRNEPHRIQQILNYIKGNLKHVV

[1] = tested on: LINE-1 DNA methylation in ML-2; assay: LINE-1 pyrosequencing; assay type: cell-based, human
Procedure: DNA methylation of the repetitive element LINE-1 was analyzed using a pyrosequencing technique. […] Cells were washed twice with PBS, and then genomic DNA was extracted using a DNA Kit (Nucleo Spin Tissue, Cat No 74095250, Macherey-Nagel) following the manufacturer's instructions. DNA purity and concentration were measured using a NanoDrop spectrophotometer (Thermo Scientific). A 1 μg amount of genomic DNA was treated and modified using a CpGenome DNA modification Kit (Cat No S7820, Chemicon International) following the manufacturer's instructions. […] [NT]) in a final volume of 25 μL. The resulting biotinylated PCR products were immobilized to Streptavidin Sepharose ® High-Performance beads (GE Healthcare) and processed to yield high-quality ssDNA using the PyroMark Vacuum Prep Workstation (Biotage) according to the manufacturer's instructions. The pyrosequencing reactions were performed using the PyromarkTM ID (Biotage), and sequence analysis was performed using the PyroQ-CpG analysis software (Biotage).

[2] = Plasma protein binding (equilibrium dialysis); assay type: in vitro ADME; conditions: pH 7.4, Human
Procedure: This study was conducted by Equilibrium Dialysis at Wuxi (http://www.wuxi.com/). HT Dialysis plate (Model HTD 96 b, Cat# 1006) and the dialysis membrane (molecular weight cutoff of 12–14 kDa, Cat# 1101) were purchased from HT Dialysis LLC (Gales Ferry, CT). Human plasma (BioIVT, # […]2P2N) and CD-1 mouse plasma (Beijing Vital River Laboratory Animal Technology Co., Ltd.) were thawed prior to experiments under running cold tap water and centrifuged at 3320 × g for 5 min to remove any clots, and the pH was checked. Only plasma from pH 7.0 to 8.0 was used. The dialysis membrane was pretreated according to the manufacturer’s instructions. Test compounds and warfarin (control) were assayed at a final concentration of 2 μM. Aliquots of 50 μL loading plasma (matrix) containing test or control compound in triplicate were transferred to Sample Collection Plates, respectively. The samples were matched with opposite blank buffer to obtain a final volume of 100 μL with a volume ratio of plasma (matrix) to dialysis buffer (1:1, v-v) in each well immediately. […] Concentrations of test compounds in the starting solution (before dialysis), the plasma side of the membrane, and the buffer side of the membrane were quantified by LC-MS/MS using a peak area ratio of analyte/internal standard. The fraction of unbound, bound, and recovery were calculated. […]

HDAC5 = target: T3, HDAC5 (Homo sapiens, UniProt Q9UQL6); assay: HDAC assay (Eurofins); assay type: biochemical
T3 construct: purchased Eurofins (contracted assay service)
T3 sequence (Q9UQL6 whole entry): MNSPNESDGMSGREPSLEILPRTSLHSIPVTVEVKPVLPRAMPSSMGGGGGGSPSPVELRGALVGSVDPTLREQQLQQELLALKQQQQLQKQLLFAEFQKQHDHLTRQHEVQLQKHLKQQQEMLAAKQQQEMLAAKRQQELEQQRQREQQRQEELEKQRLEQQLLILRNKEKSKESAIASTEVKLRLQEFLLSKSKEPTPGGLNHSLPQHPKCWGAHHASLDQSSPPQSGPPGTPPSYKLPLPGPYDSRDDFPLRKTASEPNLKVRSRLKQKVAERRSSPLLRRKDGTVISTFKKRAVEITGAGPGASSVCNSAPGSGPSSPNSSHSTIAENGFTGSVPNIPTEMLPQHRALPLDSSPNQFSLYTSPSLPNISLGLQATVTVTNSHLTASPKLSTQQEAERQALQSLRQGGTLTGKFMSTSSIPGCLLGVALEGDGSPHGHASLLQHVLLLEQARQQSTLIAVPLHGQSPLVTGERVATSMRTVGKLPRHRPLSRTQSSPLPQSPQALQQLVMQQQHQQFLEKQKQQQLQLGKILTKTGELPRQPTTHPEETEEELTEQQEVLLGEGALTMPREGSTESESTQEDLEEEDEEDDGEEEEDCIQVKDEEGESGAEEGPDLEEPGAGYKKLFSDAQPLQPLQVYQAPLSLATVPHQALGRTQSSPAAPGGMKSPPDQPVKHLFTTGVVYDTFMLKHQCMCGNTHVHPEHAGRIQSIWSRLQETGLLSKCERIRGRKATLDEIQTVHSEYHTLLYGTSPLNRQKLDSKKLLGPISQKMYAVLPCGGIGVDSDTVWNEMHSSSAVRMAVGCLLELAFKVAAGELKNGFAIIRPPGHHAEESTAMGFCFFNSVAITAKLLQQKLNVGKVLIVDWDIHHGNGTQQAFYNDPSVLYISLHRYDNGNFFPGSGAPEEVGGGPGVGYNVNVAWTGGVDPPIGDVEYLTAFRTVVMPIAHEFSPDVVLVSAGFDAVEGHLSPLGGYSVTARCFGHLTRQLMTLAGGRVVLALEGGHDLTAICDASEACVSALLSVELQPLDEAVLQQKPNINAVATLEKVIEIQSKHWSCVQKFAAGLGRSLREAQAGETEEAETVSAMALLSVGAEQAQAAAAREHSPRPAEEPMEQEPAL

Row | Structure (SMILES) | IC50 (HDAC10) [nM] | inhibition at 10 µM (HDAC10) [%] | IC50 (HDAC8) [nM] | inhibition at 10 µM (HDAC8) [%] | LINE-1 methylation (%) CG Position 1 ([1]; ML-2, 48 hours) | LINE-1 methylation (%) CG Position 2 ([1]; ML-2, 48 hours) | LINE-1 methylation (%) CG Position 3 ([1]; ML-2, 48 hours) | LINE-1 methylation (%) CG Position 4 ([1]; ML-2, 48 hours) | LINE-1 methylation (%) CG Position 5 ([1]; ML-2, 48 hours) | LINE-1 methylation (%) CG Position 1 ([1]; ML-2, 10 days) | LINE-1 methylation (%) CG Position 2 ([1]; ML-2, 10 days) | LINE-1 methylation (%) CG Position 3 ([1]; ML-2, 10 days) | LINE-1 methylation (%) CG Position 4 ([1]; ML-2, 10 days) | LINE-1 methylation (%) CG Position 5 ([1]; ML-2, 10 days) | fraction unbound at 4 h, 2 µM [2] | IC50 (HDAC5) [nM] | inhibition at 10 µM (HDAC5) [%]
1 | COc1cc2nc(-c3ccc(C)o3)cc(NCC3CCN(c4ncc(C(=O)NO)cn4)CC3)c2cc1OC [CM-444, 2-[4-[[[6,7-dimethoxy-2-(5-methyl-2-furyl)-4-quinolyl]amino]methyl]-1-piperidyl]pyrimidine-5-carbohydroxamic acid] | 15 | 96 | 83 | 100 | 65% and 67% | 73% | 77% and 81% | 86% and 88% | 56% and 64% | 61% and 57% | 48% and 46% | 66% and 62% | 64% and 60% | 46% and 44% | 0.011 ± 0.001 | 59 | 97
2 | COc1cc2nc(-c3cc(C)oc3C)cc(NCC3CCN(c4ncc(C(=O)NO)cn4)CC3)c2cc1OC [CM-1758, 2-[4-[[[2-(2,5-dimethyl-3-furyl)-6,7-dimethoxy-4-quinolyl]amino]methyl] -1-piperidyl]pyrimidine-5-carbohydroxamic acid] | 29 | 98 | 200 | 100 | 70% and 68% | 72% and 74% | 78% and 80% | 85% and 89% | 59% and 61% | 60% | 54% and 50% | 61% and 63% | 73% and 65% | 43% and 39% | 0.01 | 270 | 98
